Consider 28 compounds from patent publication US8377980B2, “Hepatitis C virus inhibitors” (Bristol-Myers Squibb Company, priority 2009, dated 2013).

One assay concerns HCV 1b genotype. Nature of the assay: HCV Replicon assay (HCV 1b genotype). It counts as cell-based. The settings on record: Hepatitis C virus; HCV 1b genotype replicon; Effective 50% inhibitory concentration; read-out: EC50. Here is the method: An HCV Replicon assay was utilized in the present disclosure, and was prepared, conducted and validated as described in commonly owned PCT/US2006/022197 and in O'Boyle et al., Antimicrob. Agents Chemother., 49(4):1346-1353 (April 2005). Assay methods incorporating luciferase reporters have also been used as described (Apath.com).
HCV-neo replicon cells and replicon cells containing resistance substitutions in the NS5A region were used to test the currently described family of compounds. The compounds were determined to have differing degrees of reduced inhibitory activity on cells containing mutations vs. the corresponding inhibitory potency against wild-type cells. Thus, the compounds of the present disclosure can be effective in inhibiting the function of the HCV NS5A protein and are understood to be as effective in combinations as previously described in application PCT/US2006/022197 and commonly owned WO 04/014852. It should be understood that the compounds of the present disclosure can inhibit multiple genotypes of HCV. […] In one embodiment, compounds of the present disclosure are inhibitory versus 1a, 1b, 2a, 2b, 3a, 4a, and 5a genotypes. EC50 values against HCV 1b are as follows.
The term EC50 denotes the concentration needed to bring the measured effect to its halfway point. In the case of `CC[C@H](NC(=O)OC)C(=O)N1[C@@H]2C[C@@H]2C[C@H]1c1nc(Cl)c(-c2ccc(-c3ccc(-c4[nH]c([C@@H]5C[C@H]6C[C@H]6N5C(=O)[C@@H](NC(=O)OC)C5CCOCC5)nc4Cl)cc3)cc2)[nH]1` [Example V9], the EC50 amounted to 0.0027 nM.
`COC(=O)NC(C(=O)N1[C@@H]2C[C@@H]2C[C@H]1c1nc(-c2ccc(-c3ccc(-c4c[nH]c([C@@H]5C[C@H]6C[C@H]6N5C(=O)[C@@H](NC(=O)OC)[C@H]5CCCOC5)n4)cc3)cc2)c(Cl)[nH]1)[C@H]1CCCOC1` (stereo partly drawn) [ZY6]: the EC50 was 0.0108 nM.

The same assay, now with this note: Hepatitis C virus; HCV 1b genotype replicon; range class; read-out: EC50-Range.
Turning to `COC(=O)N[C@H](C(=O)N1[C@@H]2C[C@@H]2C[C@H]1c1nc(-c2ccc(-c3ccc4c(ccc5[nH]c([C@@H]6C[C@H]7C[C@H]7N6C(=O)[C@@H](NC(=O)OC)C6CCOCC6)nc54)c3)cc2)c(Cl)[nH]1)C1CCOCC1` [DSTL-2], the EC50 lay within 0.01 to 0.1 nM.
Take `COC(=O)N[C@H](C(=O)N1[C@@H]2C[C@@H]2C[C@H]1c1nc(-c2ccc(-c3ccc(-c4nc([C@@H]5C[C@H]6C[C@H]6N5C(=O)[C@@H](NC(=O)OC)C5CCOCC5)[nH]c4F)cc3)cc2)c[nH]1)C1CCOCC1` [DSTL-6]: the EC50 lay in the range of 0.001 to 0.01 nM.
With `COC(=O)N[C@H](C(=O)N1[C@@H]2C[C@@H]2C[C@H]1c1nc(-c2ccc(-c3ccc(-c4nc([C@@H]5C[C@H]6C[C@H]6N5C(=O)[C@@H](NC(=O)OC)C5CCOCC5)[nH]c4F)cc3)cc2)c(F)[nH]1)C1CCOCC1` [DSTL-7], the EC50 was in the range of 0.001 to 0.01 nM.
For `COC(=O)N[C@H](C(=O)N1[C@@H](C)CC[C@H]1c1nc(-c2ccc(-c3ccc(-c4nc([C@@H]5CC[C@H](C)N5C(=O)[C@@H](NC(=O)OC)C5CCOCC5)[nH]c4F)cc3)cc2)c[nH]1)C1CCOCC1` [DSTL-9], the EC50 was in the range of 0.001 to 0.01 nM.
Consider `COC(=O)N[C@H](C(=O)N1[C@@H](C)CC[C@H]1c1nc(-c2ccc(-c3ccc(-c4nc([C@@H]5CC[C@H](C)N5C(=O)[C@@H](NC(=O)OC)C5CCOCC5)[nH]c4F)cc3)cc2)c(F)[nH]1)C1CCOCC1` [DSTL-10], for which the EC50 was in the range of 0.001 to 0.01 nM.
Turning to `COC(=O)N[C@H](C(=O)N1C2C[C@@H]2C[C@H]1c1nc(-c2ccc(-c3ccc(-c4nc([C@@H]5CC6C[C@H]6N5C(=O)[C@@H](NC(=O)OC)C5CCOCC5)[nH]c4C#N)cc3)cc2)c[nH]1)C1CCOCC1` (stereo partly drawn) [DSTL-12], the EC50 lay within 0.01 to 0.1 nM.
For the compound `CC[C@H](NC(=O)OC)C(=O)N1[C@@H]2C[C@@H]2C[C@H]1c1ncc(-c2ccc(-c3ccc(-c4[nH]c([C@@H]5C[C@H]6C[C@H]6N5C(=O)[C@H](CC)NC(=O)OC)nc4Cl)cc3)cc2)[nH]1` [Example V1], the half-maximal effective concentration (EC50) lay within 0.001 to 0.01 nM.
As for `CC[C@H](NC(=O)OC)C(=O)N1[C@@H]2C[C@@H]2C[C@H]1c1nc(Cl)c(-c2ccc(-c3ccc(-c4[nH]c([C@@H]5C[C@H]6C[C@H]6N5C(=O)[C@H](CC)NC(=O)OC)nc4Cl)cc3)cc2)[nH]1` [Example V3], the EC50 lay in the range of 0.001 to 0.01 nM.
Turning to `CC[C@H](NC(=O)OC)C(=O)N1[C@@H]2C[C@@H]2C[C@H]1c1nc(Cl)c(-c2ccc(-c3ccc(-c4[nH]c([C@@H]5C[C@H]6C[C@H]6N5C(=O)[C@@H](NC(=O)OC)C5CCOCC5)nc4Cl)cc3)cc2)[nH]1` [Example V9], the EC50 fell in the range of 0.001 to 0.01 nM.
Same read-out and setting: in the case of `COC(=O)N[C@H](C(=O)N1[C@@H](C)CC[C@H]1c1ncc(-c2ccc(-c3ccc(-c4[nH]c([C@@H]5CC[C@H](C)N5C(=O)[C@@H](NC(=O)OC)C(C)C)nc4Cl)cc3)cc2)[nH]1)C(C)C` [GW2] it was 0.001 to 0.01 nM; in that of `COC(=O)N[C@H](C(=O)N1C[C@@H](C)C[C@H]1c1ncc(-c2ccc(-c3ccc(-c4[nH]c([C@@H]5C[C@H](C)CN5C(=O)[C@@H](NC(=O)OC)C(C)C)nc4Cl)cc3)cc2)[nH]1)C(C)C` [GW3], 0.001 to 0.01 nM.
Consider `COC(=O)N[C@H](C(=O)N1C[C@@H](C)C[C@H]1c1ncc(-c2ccc(-c3ccc(-c4[nH]c([C@@H]5C[C@H](C)CN5C(=O)[C@@H](NC(=O)OC)C5CCOCC5)nc4Cl)cc3)cc2)[nH]1)C1CCOCC1` [GW4], for which the EC50 lay in the range of 0.01 to 0.1 nM.
Still for that read-out and setting: in the case of `COC(=O)N[C@H](C(=O)N1C[C@@H](C)C[C@H]1c1nc(Cl)c(-c2ccc(-c3ccc(-c4[nH]c([C@@H]5C[C@H](C)CN5C(=O)[C@@H](NC(=O)OC)C(C)C)nc4Cl)cc3)cc2)[nH]1)C(C)C` [GW8] it was 0.001 to 0.01 nM.
On the same count and under the same terms, in the case of `COC(=O)N[C@H](C(=O)N1CCC[C@H]1c1nc(-c2ccc(-c3ccc(-c4nc([C@@H]5CCCN5C(=O)[C@@H](NC(=O)OC)C(C)C)[nH]c4Br)cc3)cc2)c[nH]1)C(C)C` [JLR-1] it was 0.001 to 0.01 nM; in that of `COC(=O)N[C@H](C(=O)N1CCC[C@H]1c1nc(-c2ccc(-c3ccc(-c4nc([C@@H]5CCCN5C(=O)[C@@H](NC(=O)OC)C(C)C)[nH]c4I)cc3)cc2)c[nH]1)C(C)C` [JLR-2], 0.001 to 0.01 nM.
As for `COC(=O)N[C@H](C(=O)N1[C@@H](C)CC[C@H]1c1nc(-c2ccc(-c3ccc4c(ccc5[nH]c([C@@H]6CC[C@H](C)N6C(=O)[C@@H](NC(=O)OC)C6CCOCC6)nc54)c3)cc2)c(Cl)[nH]1)C1CCOCC1` [JLR-5], the 50% effective concentration (EC50) was 0.001 to 0.01 nM.
For `COC(=O)NC(C(=O)N1[C@@H]2C[C@@H]2C[C@H]1c1nc(-c2ccc(-c3ccc(-c4[nH]c([C@@H]5C[C@H]6C[C@H]6N5C(=O)C(NC(=O)OC)[C@H]5C[C@@H](C)O[C@@H](C)C5)nc4Cl)cc3)cc2)c[nH]1)[C@H]1C[C@@H](C)O[C@@H](C)C1` (stereo partly drawn) [OL6], the EC50 lay within 0.001 to 0.01 nM.
Same read-out and setting: then `COC(=O)N[C@H](C(=O)N1CCC[C@H]1c1ncc(-c2ccc(-c3ccc(-c4[nH]c([C@@H]5CCCN5C(=O)[C@@H](NC(=O)OC)C(C)C)nc4C4CC4)cc3)cc2)[nH]1)C(C)C` [OL7], with 0.001 to 0.01 nM.
On to `C=CCc1nc([C@@H]2CCCN2C(=O)[C@@H](NC(=O)OC)C(C)C)[nH]c1-c1ccc(-c2ccc(-c3cnc([C@@H]4CCCN4C(=O)[C@@H](NC(=O)OC)C(C)C)[nH]3)cc2)cc1` [OL15], for which the half-maximal effective concentration (EC50) was 0.001 to 0.01 nM.
For `C=CCc1cc([C@@H]2CCCN2C(=O)[C@@H](NC(=O)OC)C2CCOCC2)[nH]c1-c1ccc(-c2ccc(-c3cnc([C@@H]4CCCN4C(=O)[C@@H](NC(=O)OC)C4CCOCC4)[nH]3)cc2)cc1` [OL16], the EC50 was in the range of 0.01 to 0.1 nM.
With `COC(=O)N[C@H](C(=O)N1CCC[C@H]1c1ncc(-c2ccc(-c3ccc(-c4[nH]c([C@@H]5CCCN5C(=O)[C@@H](NC(=O)OC)C(C)C)nc4-c4ccnn4C)cc3)cc2)[nH]1)C(C)C` [OL19], the EC50 lay within 0.01 to 0.1 nM.
As to `COC(=O)N[C@H](C(=O)N1[C@@H]2C[C@@H]2C[C@H]1c1nc(-c2ccc(-c3ccc(-c4nc([C@@H]5C[C@H]6C[C@H]6N5C(=O)[C@@H](NC(=O)OC)[C@@H]5CCCOC5)[nH]c4Cl)cc3)cc2)c(Cl)[nH]1)[C@@H]1CCCOC1` [ZY1, dimethyl(S,1S,1′S)-2,2′-((1R,1′R,3S,3′S,5R,5′R)-3,3′-(4,4′-(biphenyl-4,4′-diyl)bis(5-chloro-1H-imidazole-4,2-diyl))bis(2-azabicyclo[3.1.0]hexane-3,2-diyl))bis(2-oxo-1-((S)-tetrahydro-2H-pyran-3-yl)ethane-2,1-diyl)dicarbamate], the EC50 lay in the range of 0.001 to 0.01 nM.
With `COC(=O)N[C@H](C(=O)N1[C@@H]2C[C@@H]2C[C@H]1c1nc(-c2ccc(-c3ccc(-c4nc([C@@H]5C[C@H]6C[C@H]6N5C(=O)[C@@H](NC(=O)OC)[C@H]5CCCOC5)[nH]c4Cl)cc3)cc2)c(Cl)[nH]1)[C@H]1CCCOC1` [ZY2, dimethyl(R,1S,1′S)-2,2′-((1R,1′R,3S,3′S,5R,5′R)-3,3′-(4,4′-(biphenyl-4,4′-diyl)bis(5-chloro-1H-imidazole-4,2-diyl))bis(2-azabicyclo[3.1.0]hexane-3,2-diyl))bis(2-oxo-1-((R)-tetrahydro-2H-pyran-3-yl)ethane-2,1-diyl)dicarbamate], the EC50 is 0.001 to 0.01 nM.
With `COC(=O)NC(C(=O)N1[C@@H]2C[C@@H]2C[C@H]1c1nc(-c2ccc(-c3ccc(-c4nc([C@@H]5C[C@H]6C[C@H]6N5C(=O)[C@H](NC(=O)OC)[C@H]5CCCOC5)[nH]c4Cl)cc3)cc2)c(Cl)[nH]1)[C@@H]1CCCOC1` (stereo partly drawn) [ZY3, dimethyl(R,1R,1′R)-2,2′-((1R,1′R,3S,3′S,5R,5′R)-3,3′-(4,4′-(biphenyl-4,4′-diyl)bis(5-chloro-1H-imidazole-4,2-diyl))bis(2-azabicyclo[3.1.0]hexane-3,2-diyl))bis(2-oxo-1-((R)-tetrahydro-2H-pyran-3-yl)ethane-2,1-diyl)dicarbamate], the EC50 fell in the range of 0.001 to 0.01 nM.
Turning to `COC(=O)N[C@@H](C(=O)N1[C@@H]2C[C@@H]2C[C@H]1c1nc(-c2ccc(-c3ccc(-c4nc([C@@H]5C[C@H]6C[C@H]6N5C(=O)[C@H](NC(=O)OC)[C@@H]5CCCOC5)[nH]c4Cl)cc3)cc2)c(Cl)[nH]1)[C@@H]1CCCOC1` [ZY4, dimethyl(S,1R,1′R)-2,2′-((1R,1′R,3S,3′S,5R,5′R)-3,3′-(4,4′-(biphenyl-4,4′-diyl)bis(5-chloro-1H-imidazole-4,2-diyl))bis(2-azabicyclo[3.1.0]hexane-3,2-diyl))bis(2-oxo-1-((S)-tetrahydro-2H-pyran-3-yl)ethane-2,1-diyl)dicarbamate], the EC50 lay in the range of 0.001 to 0.01 nM.
As for `COC(=O)N[C@@H](C(=O)N1[C@@H]2C[C@@H]2C[C@H]1c1nc(-c2ccc(-c3ccc(-c4nc([C@@H]5C[C@H]6C[C@H]6N5C(=O)[C@H](NC(=O)OC)[C@@H]5CCCOC5)[nH]c4Cl)cc3)cc2)c[nH]1)[C@H]1CCCOC1` [ZY5], the EC50 was 0.001 to 0.01 nM.
In the case of `COC(=O)NC(C(=O)N1[C@@H]2C[C@@H]2C[C@H]1c1nc(-c2ccc(-c3ccc(-c4c[nH]c([C@@H]5C[C@H]6C[C@H]6N5C(=O)[C@@H](NC(=O)OC)[C@H]5CCCOC5)n4)cc3)cc2)c(Cl)[nH]1)[C@H]1CCCOC1` (stereo partly drawn) [ZY6], the EC50 lay within 0.01 to 0.1 nM.
On to `COCC[C@H](NC(=O)OC)C(=O)N1[C@@H]2C[C@@H]2C[C@H]1c1nc(-c2ccc(-c3ccc(-c4nc([C@@H]5C[C@H]6C[C@H]6N5C(=O)[C@H](CCOC)NC(=O)OC)[nH]c4Cl)cc3)cc2)c(Cl)[nH]1` [ZY7, dimethyl (2S,2′S)-1,1′-((1R,1′R,3S,3′S,5R,5′R)-3,3′-(4,4′-(biphenyl-4,4′-diyl)bis(5-chloro-1H-imidazole-4,2-diyl))bis(2-azabicyclo[3.1.0]hexane-3,2-diyl))bis(4-methoxy-1-oxobutane-2,1-diyl)dicarbamate], for which the EC50 was 0.001 to 0.01 nM.
